Results: PMC11003484 (Journal of Enzyme Inhibition and Medicinal Chemistry, 2023)
Counter-ions that a name gives are not always drawn.

Experiments:
HEV helicase [1] = target: T1, HEV helicase (Hepatitis E virus genotype 1, UniProt P33424); assay: Double-stranded RNA unwinding activity / inhibition assay (fluorescence); type: biochemical; details: dsRNA unwinding, purified helicase, RT
T1 construct: The HEV helicase (735 bp) was amplified from the HEV (genotype 1; AF444002.1) cDNA clone; made in house; host or cells: E. coli BL21(DE3), pET28a; solubilised from inclusion bodies with NLS
T1 sequence (P33424 960-1204): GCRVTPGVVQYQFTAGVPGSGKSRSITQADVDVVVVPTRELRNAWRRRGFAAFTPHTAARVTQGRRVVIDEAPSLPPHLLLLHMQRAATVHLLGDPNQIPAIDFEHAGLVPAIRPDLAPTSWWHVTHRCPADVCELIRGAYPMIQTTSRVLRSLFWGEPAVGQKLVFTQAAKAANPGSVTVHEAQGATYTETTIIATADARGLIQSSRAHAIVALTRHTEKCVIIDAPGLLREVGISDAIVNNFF
Text: (§1) The HEV helicase (735 bp) was amplified from the HEV (genotype 1; accession no. AF444002.1) cDNA clone pSK-HEV-2[23]^,[25] using the forward and reverse primers sets (5′agcc|atatgggttgccgtgtgacc3′ and 5′gtgc|tcgagttaaaagaagttgttcac3′). Following standard laboratory procedures, the amplified gene was cloned in the pET28a vector between NdeI and Xho I restriction sites. The cloning was verified using colony PCR using Nde I and Xho I (New England BioLabs, Ipswich, MA) double digestion and DNA sequencing. The recombinant plasmid was further transformed to BL21(DE3) using the routine protocol for expressing HEV helicase. The transformed recombinant BL21 cells were expanded until the culture’s optical density (OD600 nm) reached 0.6 before being induced with 0.4 mM IPTG (Sigma Aldrich, St. Louis, MO) at 26 °C for 4 h. The protein solubilisation was carried out as described previously. The Immobilised Metal Affinity Chromatography (IMAC) was used to purify the solubilised protein, and the protein was eluted in a buffer containing 10 mM Tris–Cl (pH 8.0), (Sigma Aldrich), 100 mM NaCl (Sigma Aldrich), 250 mM imidazole, and 0.1% N-lauryl Sarcosine (NLS; Sigma Aldrich). Further, the buffer of purified protein was exchanged with 10 mM Tris–Cl (pH 8.0), 100 mM NaCl, and 0.08% NLS before proceeding with enzyme assays.
(§2) All the experiments were performed in triplicates, and the graphs were plotted using GraphPad Prism software (Boston, MA).

HEV helicase [2] = target: T1, HEV helicase; assay: biochemical; type: biochemical
Text: as §1
The NTPase activity of the HEV helicase enzyme was performed using a colorimetric-based Malachite green test[27]. The assay followed the manufacturer’s instructions The malachite green assay was performed as per the manufacturer’s protocol (Sigma Aldrich) cat no MAK307-1KT. The assay operates on the phosphate release from the reaction between malachite green and molybdate (AM/MG reagent) as the basis for complexation. […] The absorbance was measured on plate reader and a standard curve was generated using known concentrations of phosphate ranging from 0 to 44 uM to correlate absorbance with released phosphate concentration. The absorbance was plotted on Y-axis against the phosphate concentration on X-axis, and a straight-line equation (Y = 0.02182 * X + 0.04158) was determined using linear regression in GraphPad Prism version 9.0 (Boston, MA). The graphs were plotted as a function of the concentration of phosphate released. The effects of pH, temperature, enzyme concentration, and substrate concentration on helicase enzyme activity were studied to optimise enzyme activity.
Based on their docking score, hydrogen bonds, and protein–ligand interaction, the five selected compounds from virtual screening were tested for their ability to suppress NTPase activity. The putative inhibitors’ concentrations ranged from 0 to 10 µM during the optimisation-focused inhibition tests on the purified protein’s NTPase activity. […] The working reagent was added after the reaction mixture had been incubated at RT for 10 min, and the absorbance was measured at 600 nm.
as §2

p6 HEV-Luc Replicon = assay: HEV replicon (p6 HEV-Luc) luciferase assay in Huh7 cells; type: cell-based; details: Hepatitis E virus, Huh-7, 72 h, read-out: IC50 HEV replicon luciferase activity
Text: (§3) For transfection, pSHEV-3 (cDNA clone of HEV genotype 3; accession no. AY575859.1) was linearised using Xba I (New England BioLabs). The helicase region of GT1 and GT3 share greater than 90% sequence homology Sub-genomic HEV carrying luciferase gene (accession number JQ679013) was linearised for replicon assay with MluI. The linearised DNA was subjected to in vitro transcription, as mentioned previously[26]^,[36], and the RNA was transfected in Huh7 cells using Lipofectamine 3000 (Invitrogen, Carlsbad, CA). Briefly, a day before transfection, approximately 0.8 × 10^6 cells were seeded in each well of a six-well plate, and for HEV replicon assay, ∼5–7 × 10[3] cells were seeded in each well of 96 plate. After 24 h, the media was removed, the cells were washed twice with Opti-MEM media (Gibco™, Grand Island, NY), and the transfection mixture was prepared as mentioned earlier[25]^,[26]. The cells were incubated with a transfection mixture for 6–8 h at 37 °C.
Following transfection, the cells were incubated with inhibitors for 72 h at 37 °C in a CO2 incubator. […] The cells were then lysed according to the manufacturer’s protocol, and the luminescence was recorded on Tecan Spark® (Tecan Trading AG, Switzerland) multimode plate reader. In replicon, the luminescence was normalised w.r.t to uninfected (0%) and untreated cells (100%).

[3] = test system: HEV replication (ORF2 expression); assay: microbe, parasite or virus in culture; type: cell-based, Hepatitis E Virus
Text: as §3
For IFA, the cells were grown on a 96-well plate and transfected using Lipofectamine, as mentioned above. […] The cells were incubated for 4–5 d, and subsequently, the media was removed, and the cells were carefully washed twice with 1X PBS. The cells were fixed with 4% paraformaldehyde (PFA) and incubated for 5–10 min at RT. After fixing, the cells were again washed with 1× PBS, and the permeabilisation was performed using PBS with 0.1% Triton-X and 0.1% BSA (Bovine Serum Albumin, HiMedia, Mumbai, India). The blocking was performed using 3% BSA for 1 h at RT. After blocking, the cells were incubated with anti-HEV-ORF2 (Dilution, 1:400) antibody against the HEV capsid protein for 1 h at RT. The cells were washed thrice with PBS-T (Tween-20, 0.05%, Sigma Aldrich). The Goat-Anti-Rabbit Alexa Fluor 488 (Thermo Fisher) was used as a secondary antibody, and the cells were incubated for 30 min in the dark. The cells were washed thrice with PBS-T and stained with DAPI (Invitrogen™). […]

Huh7 cells = test system: Huh7 cells
Procedure: To study the cell viability, Huh7 cells were grown in Dulbecco’s Modified Eagle Medium (DMEM, Gibco™, Life Technologies, Grand Island, NY), supplemented with 10% Foetal Bovine Serum (FBS, Gibco™, Qualified, Brazil origin). Further, Huh7 cells were seeded in a 96-well plate (∼0.7 × 10^4 cells/well) and incubated at 37 °C in a humidified 5% CO2 incubator. […] After 4 d, the MTT (3-dimethylthiazol-2-yl-diphenyl tetrazolium bromide) assay was performed per the manufacturer’s protocol (Himedia Laboratories, Thane, India). Cell viability percentage was calculated by comparing treated cells with untreated cells.

[4] = read-out: IC50 (µM) NTPase activity

| SMILES | IC50 (HEV helicase [1]) | IC50 (HEV helicase [2]; [4]) | further results |
| --- | --- | --- | --- |
| COc1cccc2c1C(=O)c1c(O)c3c(c(O)c1C2=O)C[C@@](O)(C(C)=O)C[C@@H]3O[C@H]1C[C@H](N)[C@H](O)[C@H](C)O1 [Daunorubicin HCL, daunorubicin HCL] | 8.25 µM | 7.66 µM |  |
| C[C@]12C=CC(=O)C=C1CC[C@@H]1[C@@H]2[C@@H](O)C[C@@]2(C)[C@H]1CC[C@]2(O)C(=O)CO [Prednisolone] | 25.8 µM | 4.2 µM |  |
| O=C(O)c1cc(=O)c2c(OCC(O)COc3cccc4oc(C(=O)O)cc(=O)c34)cccc2o1 [Disodium cromoglycate, disodium cromoglycate] | 39.8 µM | 14.8 µM |  |
| CN(Cc1cnc2nc(N)nc(N)c2n1)c1ccc(C(=O)N[C@@H](CCC(=O)O)C(=O)O)cc1 [Methotrexate] |  |  | IC50 (p6 HEV-Luc Replicon): 0.0731 ± 0.0127 µM; HEV replication inhibition (IFA) ([3]; 50 nM Mtx): ~81%; fluorescence level (ORF2, IFA) ([3]; 100 nM methotrexate, untreated 100%): ~6%; inhibition at 0.1 µM ([3]; Hepatitis E virus, Huh-7, read-out: inhibition of HEV replication (IFA)): ~94%; Cytotoxicity (MTT assay) (Huh7 cells): < 100 nM |
| Nc1nc2c(ncn2C2OC(COP(=O)(O)OP(=O)(O)OP(=O)(O)O)C(O)C2O)c(=O)[nH]1 (centres unmarked) [GTP] |  |  | Km (HEV helicase [2]; read-out: Km (substrate, NTPase activity), GTP 0 to […], Michaelis-Menten fit): 350 µM |
| CN1c2c(nc(N)[nH]c2=O)NC[C@@H]1CNc1ccc(C(=O)N[C@@H](CCC(=O)O)C(=O)O)cc1 [Levomefolic acid, 5-methyltetrahydrofolate (levomefolic acid)] | 13.9 µM |  | IC50 (HEV helicase [2]): 3.65 µM |
